Results taken from ChEMBL document CHEMBL3992550, “An epigenetic modifier induces production of (10'S)-verruculide B, an inhibitor of protein tyrosine phosphatases by Phoma sp. nov. LG0217, a fungal endophyte of Parkinsonia microphylla” (Bioorg Med Chem, 2017).

How the values were obtained:
[1] = target: Tyrosine-protein phosphatase non-receptor type 6 (Homo sapiens, UniProt P29350); experiment: Inhibition of SHP1 (unknown origin) expressed in Escherichia coli BL21(DE3) using pNPP as substrate preincubated for 15 mins followed by substrate addition measured after 10 mins
Chain of Tyrosine-protein phosphatase non-receptor type 6 (P29350 whole entry): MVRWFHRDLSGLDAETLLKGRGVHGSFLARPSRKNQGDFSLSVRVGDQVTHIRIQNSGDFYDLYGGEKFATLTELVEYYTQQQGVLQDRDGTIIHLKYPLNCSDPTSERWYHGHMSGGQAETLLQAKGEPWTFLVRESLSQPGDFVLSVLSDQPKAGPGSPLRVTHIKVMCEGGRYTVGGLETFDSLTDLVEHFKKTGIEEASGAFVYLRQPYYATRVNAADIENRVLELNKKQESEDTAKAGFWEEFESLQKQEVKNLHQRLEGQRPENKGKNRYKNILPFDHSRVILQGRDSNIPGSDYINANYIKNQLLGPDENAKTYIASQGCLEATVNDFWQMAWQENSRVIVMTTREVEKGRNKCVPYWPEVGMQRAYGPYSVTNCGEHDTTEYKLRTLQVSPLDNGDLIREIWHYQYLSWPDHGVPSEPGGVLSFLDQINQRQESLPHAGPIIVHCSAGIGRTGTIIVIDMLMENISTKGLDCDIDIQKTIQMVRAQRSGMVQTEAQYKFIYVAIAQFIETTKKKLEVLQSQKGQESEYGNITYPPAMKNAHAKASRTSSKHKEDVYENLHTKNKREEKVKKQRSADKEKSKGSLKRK

[2] = target: T1, Tyrosine-protein phosphatase non-receptor type 1 (Homo sapiens, UniProt P18031); experiment: Inhibition of PTP1B (unknown origin) expressed in Escherichia coli BL21(DE3) using pNPP as substrate preincubated for 15 mins followed by substrate addition measured after 10 mins
T1 sequence (P18031 whole entry): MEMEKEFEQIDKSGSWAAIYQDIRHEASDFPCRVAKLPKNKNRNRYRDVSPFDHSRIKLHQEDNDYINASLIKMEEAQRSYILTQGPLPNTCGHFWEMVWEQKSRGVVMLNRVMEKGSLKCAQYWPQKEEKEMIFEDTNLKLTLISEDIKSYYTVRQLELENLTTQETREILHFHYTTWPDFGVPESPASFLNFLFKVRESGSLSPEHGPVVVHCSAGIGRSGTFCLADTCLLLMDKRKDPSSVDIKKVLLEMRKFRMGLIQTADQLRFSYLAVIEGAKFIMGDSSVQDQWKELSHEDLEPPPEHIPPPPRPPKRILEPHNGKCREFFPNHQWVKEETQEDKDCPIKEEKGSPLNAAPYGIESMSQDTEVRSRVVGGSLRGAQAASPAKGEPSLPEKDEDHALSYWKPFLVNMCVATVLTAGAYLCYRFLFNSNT

[3] = target: T2, Tyrosine-protein phosphatase non-receptor type 2 (Homo sapiens, UniProt P17706); experiment: Inhibition of TCPTP (unknown origin) expressed in Escherichia coli BL21(DE3) using pNPP as substrate preincubated for 15 mins followed by substrate addition measured after 10 mins
T2 sequence (P17706 whole entry): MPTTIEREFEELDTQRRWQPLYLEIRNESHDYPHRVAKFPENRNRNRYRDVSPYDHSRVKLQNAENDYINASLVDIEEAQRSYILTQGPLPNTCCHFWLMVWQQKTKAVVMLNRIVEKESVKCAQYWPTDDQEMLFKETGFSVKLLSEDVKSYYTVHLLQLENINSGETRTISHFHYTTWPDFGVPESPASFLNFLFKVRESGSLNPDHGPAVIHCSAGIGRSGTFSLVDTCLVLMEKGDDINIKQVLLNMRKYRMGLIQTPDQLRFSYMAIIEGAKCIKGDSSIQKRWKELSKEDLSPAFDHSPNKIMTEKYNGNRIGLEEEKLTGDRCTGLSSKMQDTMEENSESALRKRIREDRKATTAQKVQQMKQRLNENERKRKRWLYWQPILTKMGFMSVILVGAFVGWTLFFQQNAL

- IC50 [1]: 8.8 µM
- IC50 [2]: 13.7 µM
- IC50 [3]: 16.6 µM
SMILES: C/C(=C\Cc1c(O)cc(O)c2c1C[C@@H](C)OC2=O)CC/C=C(\C)CC[C@H](O)C(C)(C)O
